System: MV-4-11 cells
Assay: Gene expression microarray analysis (Affymetrix PrimeView) and GSEA
Assay type: cell-based, human
Parameters: RFU PODN (11730768_x_at) / Fold change /veh PODN (11730768_x_at) / RFU LINC00158 (11744669_a_at) / Fold change /veh LINC00158 (11744669_a_at) / RFU DUSP10 (11751237_a_at) / Fold change /veh DUSP10 (11751237_a_at) / RFU ID3 (11757404_x_at) / Fold change /veh ID3 (11757404_x_at) / RFU PLEKHG5 (11737974_s_at) / Fold change /veh PLEKHG5 (11737974_s_at) / RFU LRRC4B (11730491_at) / Fold change /veh LRRC4B (11730491_at) / RFU GIMAP4 (11747438_a_at) / Fold change /veh GIMAP4 (11747438_a_at) / RFU KRT8 (11758183_x_at) / Fold change /veh KRT8 (11758183_x_at) / RFU CNN1 (11734310_a_at) / Fold change /veh CNN1 (11734310_a_at) / RFU VPS37D (11726825_at) / Fold change /veh VPS37D (11726825_at) / RFU C10orf10 (11716522_x_at) / Fold change /veh C10orf10 (11716522_x_at) / RFU KIR2DL2 /// KIR2DL4 /// KIR2DL5A /// KIR2DL5B /// KIR2DS1 /// KIR2DS2 /// KIR2DS3 /// KIR2DS4 /// KIR3DL3 /// KIR3DL3 /// KIR3DS1 (11738374_at) / Fold change /veh KIR2DL2 /// KIR2DL4 /// KIR2DL5A /// KIR2DL5B /// KIR2DS1 /// KIR2DS2 /// KIR2DS3 /// KIR2DS4 /// KIR3DL3 /// KIR3DL3 /// KIR3DS1 (11738374_at) / RFU C1QL1 (11718748_at) / Fold change /veh C1QL1 (11718748_at) / RFU TMPRSS4 (11747572_a_at) / Fold change /veh TMPRSS4 (11747572_a_at) / RFU HAMP (11756126_x_at) / Fold change /veh HAMP (11756126_x_at) / RFU RNFT2 (11725882_a_at) / Fold change /veh RNFT2 (11725882_a_at) / RFU NR4A2 (11747474_a_at) / Fold change /veh NR4A2 (11747474_a_at) / RFU ABCC12 (11746883_a_at) / Fold change /veh ABCC12 (11746883_a_at) / RFU TMEM136 (11760407_x_at) / Fold change /veh TMEM136 (11760407_x_at) / RFU CLDN22 /// WWC2 (11732394_at) / Fold change /veh CLDN22 /// WWC2 (11732394_at) / RFU HLA-DPB1 (11760878_x_at) / Fold change /veh HLA-DPB1 (11760878_x_at) / RFU SPINT1 (11716480_a_at) / Fold change /veh SPINT1 (11716480_a_at) / RFU GAP43 (11754022_s_at) / Fold change /veh GAP43 (11754022_s_at) / RFU A4GNT (11735810_at) / Fold change /veh A4GNT (11735810_at) / RFU PRB3 (11715151_x_at) / Fold change /veh PRB3 (11715151_x_at) / RFU TUBB4B (11761932_at) / Fold change /veh TUBB4B (11761932_at) / RFU CAPN14 (11732068_a_at) / Fold change /veh CAPN14 (11732068_a_at) / RFU TMCC2 (11721928_a_at) / Fold change /veh TMCC2 (11721928_a_at) / RFU IRGQ (11745062_a_at) / Fold change /veh IRGQ (11745062_a_at) / RFU FAM174B (11720279_a_at) / Fold change /veh FAM174B (11720279_a_at) / RFU TMPRSS4 (11748680_a_at) / Fold change /veh TMPRSS4 (11748680_a_at) / RFU FAM212B (11763350_a_at) / Fold change /veh FAM212B (11763350_a_at) / RFU PLEKHG5 (11743358_a_at) / Fold change /veh PLEKHG5 (11743358_a_at) / RFU ZSCAN30 (11745921_a_at) / Fold change /veh ZSCAN30 (11745921_a_at) / RFU CMKLR1 (11741424_a_at) / Fold change /veh CMKLR1 (11741424_a_at) / RFU LOC101060620 /// MAPK8IP1 (11723275_at) / Fold change /veh LOC101060620 /// MAPK8IP1 (11723275_at) / RFU SPTSSB (11747773_x_at) / Fold change /veh SPTSSB (11747773_x_at) / RFU PRSS12 (11739890_at) / Fold change /veh PRSS12 (11739890_at) / RFU BIN1 (11741810_x_at) / Fold change /veh BIN1 (11741810_x_at) / RFU WNT11 (11732464_a_at) / Fold change /veh WNT11 (11732464_a_at) / RFU C10orf10 (11716521_a_at) / Fold change /veh C10orf10 (11716521_a_at) / RFU C5orf56 (11738089_at) / Fold change /veh C5orf56 (11738089_at) / RFU CYB561 (11721691_x_at) / Fold change /veh CYB561 (11721691_x_at) / RFU ANKRD19P (11752326_a_at) / Fold change /veh ANKRD19P (11752326_a_at) / RFU OR2T12 /// OR2T33 /// OR2T8 (11738714_s_at) / Fold change /veh OR2T12 /// OR2T33 /// OR2T8 (11738714_s_at) / RFU VCAN (11748164_a_at) / Fold change /veh VCAN (11748164_a_at) / RFU JSRP1 (11732532_at) / Fold change /veh JSRP1 (11732532_at) / RFU KRTAP10-11 (11738290_x_at) / Fold change /veh KRTAP10-11 (11738290_x_at) / RFU MYO3A (11730013_a_at) / Fold change /veh MYO3A (11730013_a_at) / RFU EBF3 (11725865_a_at) / Fold change /veh EBF3 (11725865_a_at) / RFU CAMK2N1 (11719241_x_at) / Fold change /veh CAMK2N1 (11719241_x_at) / RFU C5orf56 (11738088_a_at) / Fold change /veh C5orf56 (11738088_a_at) / RFU OLFML3 (11715873_a_at) / Fold change /veh OLFML3 (11715873_a_at) / RFU LOC100653217 /// NTM (11731650_a_at) / Fold change /veh LOC100653217 /// NTM (11731650_a_at) / RFU MAPK11 (11762145_a_at) / Fold change /veh MAPK11 (11762145_a_at) / RFU FIZ1 (11724087_x_at) / Fold change /veh FIZ1 (11724087_x_at) / RFU OASL (11726364_x_at) / Fold change /veh OASL (11726364_x_at) / RFU SOX15 (11748057_x_at) / Fold change /veh SOX15 (11748057_x_at) / RFU CD79A (11719716_a_at) / Fold change /veh CD79A (11719716_a_at) / RFU HIST1H1D (11736915_at) / Fold change /veh HIST1H1D (11736915_at) / RFU CASKIN2 (11723855_a_at) / Fold change /veh CASKIN2 (11723855_a_at) / RFU LOC730098 (11760151_x_at) / Fold change /veh LOC730098 (11760151_x_at) / RFU OR4N2 (11742367_at) / Fold change /veh OR4N2 (11742367_at) / RFU PRRT2 (11749266_a_at) / Fold change /veh PRRT2 (11749266_a_at) / RFU SNX32 (11753110_a_at) / Fold change /veh SNX32 (11753110_a_at) / RFU CDHR5 (11726645_a_at) / Fold change /veh CDHR5 (11726645_a_at) / RFU RCAN1 (11760418_a_at) / Fold change /veh RCAN1 (11760418_a_at) / RFU FAM167A (11723789_a_at) / Fold change /veh FAM167A (11723789_a_at) / RFU FAM26E (11764081_at) / Fold change /veh FAM26E (11764081_at) / RFU ISYNA1 (11749810_s_at) / Fold change /veh ISYNA1 (11749810_s_at) / RFU ACY1 (11761880_at) / Fold change /veh ACY1 (11761880_at) / RFU 11764098_at / Fold change /veh 11764098_at / RFU SAMD14 (11745864_x_at) / Fold change /veh SAMD14 (11745864_x_at) / RFU NPB (11741838_a_at) / Fold change /veh NPB (11741838_a_at) / RFU TMPRSS6 (11731388_a_at) / Fold change /veh TMPRSS6 (11731388_a_at) / RFU KRTAP10-2 (11738614_at) / Fold change /veh KRTAP10-2 (11738614_at) / RFU ARHGAP8 /// PRR5-ARHGAP8 (11727945_x_at) / Fold change /veh ARHGAP8 /// PRR5-ARHGAP8 (11727945_x_at) / RFU KRTAP5-7 /// NADSYN1 (11734609_at) / Fold change /veh KRTAP5-7 /// NADSYN1 (11734609_at) / RFU RASL12 (11751679_a_at) / Fold change /veh RASL12 (11751679_a_at) / RFU CDKN2B (11736163_a_at) / Fold change /veh CDKN2B (11736163_a_at) / RFU PRF1 (11729649_at) / Fold change /veh PRF1 (11729649_at) / RFU, ZNF638 /// ZNF638-IT1 / Fold change vs veh, ZNF638 /// ZNF638-IT1 / RFU, PANK3 / Fold change vs veh, PANK3 / RFU, SH3YL1 / Fold change vs veh, SH3YL1 / RFU, ZEB2 / Fold change vs veh, ZEB2 / RFU, NRIP1 / Fold change vs veh, NRIP1 / RFU, PTTG1IP / Fold change vs veh, PTTG1IP / RFU, CAPN2 / Fold change vs veh, CAPN2 / RFU, MED14 / Fold change vs veh, MED14 / RFU, SNORA58 / Fold change vs veh, SNORA58 / RFU, C1orf63 / Fold change vs veh, C1orf63 / RFU, LRRFIP1 / Fold change vs veh, LRRFIP1 / RFU, NDUFAF7 / Fold change vs veh, NDUFAF7 / RFU, SLC12A2 / Fold change vs veh, SLC12A2 / RFU, IBTK / Fold change vs veh, IBTK / RFU, ESF1 / Fold change vs veh, ESF1 / Fold change vs veh, TMEM50B / RFU, TAOK1 / Fold change vs veh, TAOK1 / RFU, ACBD3 / Fold change vs veh, ACBD3 / RFU, TMA16 / Fold change vs veh, TMA16 / RFU, RWDD3 / Fold change vs veh, RWDD3 / RFU, BCAT1 / Fold change vs veh, BCAT1 / RFU, EDEM3 / Fold change vs veh, EDEM3 / RFU, TMEM33 / Fold change vs veh, TMEM33 / RFU, WDR75 / Fold change vs veh, WDR75 / RFU, AHCTF1 / Fold change vs veh, AHCTF1 / RFU, TFRC / Fold change vs veh, TFRC / RFU, ZDHHC17 / Fold change vs veh, ZDHHC17 / RFU, NOM1 / Fold change vs veh, NOM1 / RFU, ARL8B / Fold change vs veh, ARL8B / RFU, ZBTB11 / Fold change vs veh, ZBTB11 / RFU, TAMM41 / Fold change vs veh, TAMM41 / RFU, KIAA1704 /// LOC100996395 / Fold change vs veh, KIAA1704 /// LOC100996395 / RFU, ING1 / Fold change vs veh, ING1 / RFU, TRMT61B / Fold change vs veh, TRMT61B / RFU, FUBP3 / Fold change vs veh, FUBP3 / RFU, TP53 / Fold change vs veh, TP53 / RFU, TNKS2 / Fold change vs veh, TNKS2 / RFU, ZFP14 / Fold change vs veh, ZFP14 / RFU, ACTR2 / Fold change vs veh, ACTR2 / RFU, PPP3R1 / Fold change vs veh, PPP3R1 / RFU, PIK3R1 / Fold change vs veh, PIK3R1 / RFU, HNRNPA1 / Fold change vs veh, HNRNPA1 / RFU, RNF170 / Fold change vs veh, RNF170 / RFU, ZNF28 / Fold change vs veh, ZNF28 / RFU, RNGTT / Fold change vs veh, RNGTT / RFU, OGT / Fold change vs veh, OGT / RFU, BRD1 / Fold change vs veh, BRD1 / RFU, MARS / Fold change vs veh, MARS / RFU, ZNF655 / Fold change vs veh, ZNF655 / RFU, FAHD1 / Fold change vs veh, FAHD1 / RFU, BDP1 / Fold change vs veh, BDP1 / RFU, LRRCC1 / Fold change vs veh, LRRCC1 / RFU, ARID1A / Fold change vs veh, ARID1A / RFU, ZNF146 / Fold change vs veh, ZNF146 / RFU, ZNF330 / Fold change vs veh, ZNF330 / RFU, GPN3 / Fold change vs veh, GPN3 / RFU, C9orf123 / Fold change vs veh, C9orf123 / RFU, N4BP2L2 / Fold change vs veh, N4BP2L2 / RFU, ARFIP1 / Fold change vs veh, ARFIP1 / RFU, FAM179B / Fold change vs veh, FAM179B / RFU, BCL10 / Fold change vs veh, BCL10 / RFU, UHRF1BP1L / Fold change vs veh, UHRF1BP1L / RFU, BET1 / Fold change vs veh, BET1 / RFU, CNOT2 / Fold change vs veh, CNOT2 / RFU, ZNF268 / Fold change vs veh, ZNF268 / Fold change vs veh, ZNF507 / RFU, DGCR2 / Fold change vs veh, DGCR2 / RFU, WDSUB1 / Fold change vs veh, WDSUB1 / Fold change vs veh, HSP90B1 /// MIR3652 / RFU, ADSS / Fold change vs veh, ADSS / RFU, GK / Fold change vs veh, GK / RFU, ZNF148 / Fold change vs veh, ZNF148 / RFU, TAF9 / Fold change vs veh, TAF9 / RFU, SLC1A5 / Fold change vs veh, SLC1A5 / RFU, SLMO2 / Fold change vs veh, SLMO2 / RFU, ABCC4 / Fold change vs veh, ABCC4 / RFU, LOC101060439 /// RAP1B / Fold change vs veh, LOC101060439 /// RAP1B / RFU, RFX7 / Fold change vs veh, RFX7 / RFU, GTPBP10 / Fold change vs veh, GTPBP10 / RFU, CNEP1R1 / Fold change vs veh, CNEP1R1 / RFU, BIVM-ERCC5 /// ERCC5 / Fold change vs veh, BIVM-ERCC5 /// ERCC5 / RFU, ILF3 / Fold change vs veh, ILF3 / RFU 11762660_at / Fold change /veh 11762660_at / RFU VCAN (11757783_s_at) / Fold change /veh VCAN (11757783_s_at) / RFU DDX43 (11728927_at) / Fold change /veh DDX43 (11728927_at) / RFU KRT8 (11758188_x_at) / Fold change /veh KRT8 (11758188_x_at) / RFU NKD1 (11759106_at) / Fold change /veh NKD1 (11759106_at) / RFU SRD5A1 (11742802_a_at) / Fold change /veh SRD5A1 (11742802_a_at) / RFU TPSAB1 /// TPSB2 (11721975_s_at) / Fold change /veh TPSAB1 /// TPSB2 (11721975_s_at) / RFU GSTM3 (11746129_a_at) / Fold change /veh GSTM3 (11746129_a_at) / RFU IL23R (11737362_x_at) / Fold change /veh IL23R (11737362_x_at) / RFU TMEM51 (11727254_a_at) / Fold change /veh TMEM51 (11727254_a_at) / RFU PIWIL2 (11732686_x_at) / Fold change /veh PIWIL2 (11732686_x_at) / RFU ORM1 (11744905_x_at) / Fold change /veh ORM1 (11744905_x_at) / RFU CCDC152 (11743942_at) / Fold change /veh CCDC152 (11743942_at) / RFU ECM1 (11717891_a_at) / Fold change /veh ECM1 (11717891_a_at) / RFU IL23R (11748794_a_at) / Fold change /veh IL23R (11748794_a_at) / RFU TNFAIP8L3 (11732012_x_at) / Fold change /veh TNFAIP8L3 (11732012_x_at) / RFU MBOAT4 (11741988_at) / Fold change /veh MBOAT4 (11741988_at) / RFU 11764193_at / Fold change /veh 11764193_at / RFU TMEM53 (11763286_at) / Fold change /veh TMEM53 (11763286_at) / RFU MAGEB2 (11727129_at) / Fold change /veh MAGEB2 (11727129_at) / RFU TMEM200A (11744735_a_at) / Fold change /veh TMEM200A (11744735_a_at) / RFU CCDC152 (11751479_a_at) / Fold change /veh CCDC152 (11751479_a_at) / RFU FAM211A (11726209_a_at) / Fold change /veh FAM211A (11726209_a_at) / RFU RGS16 (11746705_a_at) / Fold change /veh RGS16 (11746705_a_at) / RFU VCAN (11755009_s_at) / Fold change /veh VCAN (11755009_s_at) / RFU RHOB (11743442_s_at) / Fold change /veh RHOB (11743442_s_at) / RFU RGS16 (11720943_a_at) / Fold change /veh RGS16 (11720943_a_at) / RFU RGS16 (11720944_at) / Fold change /veh RGS16 (11720944_at) / RFU, VPS4B / Fold change vs veh, VPS4B / RFU, CREB1 / Fold change vs veh, CREB1 / RFU, DNAJC13 / Fold change vs veh, DNAJC13 / RFU, GNAQ / Fold change vs veh, GNAQ / RFU, CDK5R1 / Fold change vs veh, CDK5R1 / RFU, ZRANB3 / Fold change vs veh, ZRANB3 / RFU, CUL4A / Fold change vs veh, CUL4A / RFU, CCNY / Fold change vs veh, CCNY / RFU, UFL1 / Fold change vs veh, UFL1 / RFU, COG3 / Fold change vs veh, COG3 / RFU, DIAPH2 / Fold change vs veh, DIAPH2 / RFU, SKA2 / Fold change vs veh, SKA2 / RFU, AFF3 / Fold change vs veh, AFF3 / RFU, LMF1 / Fold change vs veh, LMF1 / RFU, IPO11 / Fold change vs veh, IPO11 / RFU, DFFB / Fold change vs veh, DFFB / RFU, FOXP1 / Fold change vs veh, FOXP1 / RFU, CARD8 / Fold change vs veh, CARD8 / RFU, STRN3 / Fold change vs veh, STRN3 / RFU, ADK / Fold change vs veh, ADK / RFU, RASSF2 / Fold change vs veh, RASSF2 / RFU, WIPF1 / Fold change vs veh, WIPF1 / RFU, LARP1B / Fold change vs veh, LARP1B / RFU, RASA1 / Fold change vs veh, RASA1 / RFU, RB1 / Fold change vs veh, RB1 / RFU, PPFIA1 / Fold change vs veh, PPFIA1 / RFU, MAT2A / Fold change vs veh, MAT2A / RFU, CCT5 / Fold change vs veh, CCT5 / RFU, WDR92 / Fold change vs veh, WDR92 / RFU, CUX1 / Fold change vs veh, CUX1 / RFU, TTC7A / Fold change vs veh, TTC7A / RFU, TMEM135 / Fold change vs veh, TMEM135 / RFU, DEPTOR / Fold change vs veh, DEPTOR / RFU, CPM / Fold change vs veh, CPM / RFU, DNAJB6 / Fold change vs veh, DNAJB6 / RFU, CACNA2D3 / Fold change vs veh, CACNA2D3 / RFU, DTX4 / Fold change vs veh, DTX4 / RFU, TFCP2 / Fold change vs veh, TFCP2 / RFU, GMCL1 /// GMCL1P1 / Fold change vs veh, GMCL1 /// GMCL1P1 / RFU, AEBP2 / Fold change vs veh, AEBP2 / RFU, SNHG1 /// SNORD22 /// SNORD25 /// SNORD26 /// SNORD27 /// SNORD28 /// SNORD29 /// SNORD31 / Fold change vs veh, SNHG1 /// SNORD22 /// SNORD25 /// SNORD26 /// SNORD27 /// SNORD28 /// SNORD29 /// SNORD31 / Fold change (Aza/veh), C12orf56 (ProbeSet 11735607_a_at) / Fold change (ACY-1035/veh), C12orf56 (ProbeSet 11735607_a_at) / Fold change (Aza/veh), FGFR1OP (ProbeSet 11751329_s_at) / Fold change (ACY-1035/veh), FGFR1OP (ProbeSet 11751329_s_at) / Fold change (Aza/veh), VPS36 (ProbeSet 11739960_a_at) / Fold change (ACY-1035/veh), VPS36 (ProbeSet 11739960_a_at) / RFU SYPL1 (11715823_x_at) / Fold change /veh SYPL1 (11715823_x_at) / RFU IGFBP7 (11715501_s_at) / Fold change /veh IGFBP7 (11715501_s_at) / RFU REEP3 (11722064_at) / Fold change /veh REEP3 (11722064_at) / RFU IGLL1 (11728026_x_at) / Fold change /veh IGLL1 (11728026_x_at): dose or concentration left out as unconfirmed
Details: ProbeSet 11728271_at; LIST B

Nc1ccc(-c2cccs2)cc1NC(=O)c1ccc2c(c1)cc(C1CC1)n2CCN1CCOCC1 [ACY-1035]
RFU, ZNF330: 663.85 RFU

— publication PMC5218480 (PLoS ONE, 2017)
